Molecular target: T1, EHMT2 (Homo sapiens, UniProt Q96KQ7)
T1 construct: host or cells: MDA-MB-231
T1 sequence (Q96KQ7 1-1210): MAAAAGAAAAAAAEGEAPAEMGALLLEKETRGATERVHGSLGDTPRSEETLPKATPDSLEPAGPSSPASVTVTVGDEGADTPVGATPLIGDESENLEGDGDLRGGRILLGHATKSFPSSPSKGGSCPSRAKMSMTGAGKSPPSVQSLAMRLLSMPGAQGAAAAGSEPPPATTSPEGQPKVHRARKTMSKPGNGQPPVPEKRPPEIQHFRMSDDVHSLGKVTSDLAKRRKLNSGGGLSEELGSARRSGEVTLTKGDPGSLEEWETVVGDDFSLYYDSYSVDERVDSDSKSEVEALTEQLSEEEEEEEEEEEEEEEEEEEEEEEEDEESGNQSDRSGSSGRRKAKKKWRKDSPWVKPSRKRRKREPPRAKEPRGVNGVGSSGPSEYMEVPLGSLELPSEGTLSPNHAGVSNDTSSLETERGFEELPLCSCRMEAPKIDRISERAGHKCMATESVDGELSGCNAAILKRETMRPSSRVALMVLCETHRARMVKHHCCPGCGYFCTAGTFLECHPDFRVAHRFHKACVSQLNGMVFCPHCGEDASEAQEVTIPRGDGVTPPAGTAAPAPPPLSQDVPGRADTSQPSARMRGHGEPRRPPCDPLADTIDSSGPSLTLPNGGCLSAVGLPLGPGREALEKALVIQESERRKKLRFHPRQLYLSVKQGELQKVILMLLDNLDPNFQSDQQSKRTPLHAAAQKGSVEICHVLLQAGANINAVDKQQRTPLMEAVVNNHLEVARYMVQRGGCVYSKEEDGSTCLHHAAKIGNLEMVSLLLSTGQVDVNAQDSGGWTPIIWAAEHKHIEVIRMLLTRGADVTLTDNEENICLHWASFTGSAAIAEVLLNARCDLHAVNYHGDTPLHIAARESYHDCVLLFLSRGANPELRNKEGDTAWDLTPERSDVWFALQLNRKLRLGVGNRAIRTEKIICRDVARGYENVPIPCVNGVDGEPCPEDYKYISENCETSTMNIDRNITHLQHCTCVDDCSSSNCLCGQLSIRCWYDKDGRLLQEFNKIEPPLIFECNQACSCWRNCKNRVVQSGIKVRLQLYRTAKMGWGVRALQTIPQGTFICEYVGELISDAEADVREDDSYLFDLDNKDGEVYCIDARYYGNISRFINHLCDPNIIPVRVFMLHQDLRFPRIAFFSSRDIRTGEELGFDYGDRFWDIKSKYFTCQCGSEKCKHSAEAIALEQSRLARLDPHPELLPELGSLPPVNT
Test: MDA-MB-231 H3K9me2 in-cell Western assay (EHMT2 ICW)
Format: cell-based
Conditions: Table VI; read-out: EHMT2 ICW IC50
Method in brief: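 Cells seeded at 3,000/well onto pre-dispensed compound; 30 min RT, then 48 h 37 °C/5% CO2. PFA fix, block, α-H3K9me2 1:800 o/n 4 °C, 800CW secondary + DRAQ5. Odyssey scan 700/800 nm; ratio → % inhibition → 4-parameter IC50.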

SMILES	IC50
CNC(=O)C1CCN(c2cc3nc(NC)cc(C)c3cc2OC)C1 (stereo not drawn) [Compound 900]	100 to 1000 nM
CNc1cc(C2CCOCC2)c2cc(OC)c(OCCCN3CC(O)C3)cc2n1 [Compound 902]	100 to 1000 nM
CNc1nc2cc(OCCCN3CCCC3)c(OC)cc2cc1Cl [Compound 903]	1000 to 10000 nM
CNc1cc(C)nc(Nc2ccc(OC)c(C#CCN3CCOCC3)c2)n1 [Compound 904]	> 10000 nM
CNc1cc(C)nc(Nc2ccc(OC)c(OC[C@@H](O)CN3CCCC3)c2)n1 [Compound 905]	100 to 1000 nM
CNc1ccnc(Nc2ccc(OC)c(OC[C@@H](O)CN3CCC3)c2)n1 [Compound 907]	1000 to 10000 nM
CNc1ccnc(Nc2ccc(OC)c(OC[C@H](O)CN3CCC3)c2)n1 [Compound 908]	100 to 1000 nM
CNc1ccnc(Nc2cnc(OC)c(OC[C@@H]3CCN(C)C3)c2)n1 [Compound 912]	100 to 1000 nM
CNc1ccnc(Nc2cnc(OC)c(OCCCN3CCC3)c2)n1 [Compound 914]	100 to 1000 nM
CNCCCOc1cc(Nc2nccc(NC)n2)ccc1OC [Compound 916]	1000 to 10000 nM
CNCCCOc1cc(Nc2nccc(NC)n2)cnc1OC [Compound 917]	1000 to 10000 nM
CNC[C@@H](O)COc1cc(Nc2nccc(NC)n2)cnc1OC [Compound 918]	1000 to 10000 nM
CNc1ccnc(Nc2ccc(OC)c(OC[C@@H](CN3CCCC3)OC)c2)n1 [Compound 919]	> 10000 nM
CNc1ccnc(Nc2ccc(OC)c(OC[C@H](CN3CCCC3)OC)c2)n1 [Compound 920]	100 to 1000 nM
CNC[C@H](COc1cc(Nc2nccc(NC)n2)ccc1OC)OC [Compound 921]	> 10000 nM
CNC[C@@H](COc1cc(Nc2nccc(NC)n2)ccc1OC)OC [Compound 922]	> 10000 nM
CCN1CC[C@@H](COc2cc(Nc3nccc(NC)n3)ccc2OC)C1 [Compound 927]	100 to 1000 nM

More lines, now with the values ahead:

IC50	SMILES
< 100 nM	CNc1ccnc(Nc2ccc(OC)c(OC[C@@H]3CCN(C4CC4)C3)c2)n1 [Compound 928]
> 10000 nM	CNc1ccnc(Nc2ccc(OC)c(OC[C@H]3CN(C)CCO3)c2)n1 [Compound 931]
> 10000 nM	CCN1CCO[C@@H](COc2cc(Nc3nccc(NC)n3)ccc2OC)C1 [Compound 932]
> 10000 nM	CNc1ccnc(Nc2ccc(OC)c(OC[C@H]3CNCCO3)c2)n1 [Compound 933]
> 10000 nM	CNc1ccnc(Nc2ccc(OC)c(OC[C@@H]3CN(C)CCO3)c2)n1 [Compound 936]
> 10000 nM	CCN1CCO[C@H](COc2cc(Nc3nccc(NC)n3)ccc2OC)C1 [Compound 937]
> 10000 nM	CNc1ccnc(Nc2ccc(OC)c(OC[C@@H]3CNCCO3)c2)n1 [Compound 938]
1000 to 10000 nM	CNc1ccnc(Nc2ccc(OC)c(OC[C@@H](C)CN3CCC3)c2)n1 [Compound 943]
100 to 1000 nM	CNc1ccnc(Nc2ccc(OC)c(OC[C@H](C)CN3CCC3)c2)n1 [Compound 945]
1000 to 10000 nM	CCN1CC[C@@H](COc2cc(Nc3nc(C)cc4[nH]ncc34)ncc2OC)C1 [Compound 947]
100 to 1000 nM	CNc1cc(C)nc(Nc2cnc(OC)c(OCCCN3CCC3)c2)n1 [Compound 949]
1000 to 10000 nM	COc1cc2c(C3CCN(C)CC3)nc(N3CCCC3)nc2cc1OCCCN1CC(O)C1 [Compound 950]
1000 to 10000 nM	CCN1CC(COc2cc3nc(NC)nc(C4CCN(C)CC4)c3cc2OC)C1 [Compound 951]
> 10000 nM	CNc1nc(C2=CC(C)(C)NC(C)(C)C2)c2cc(OC)c(OCCCN3CCCC3)cc2n1 [Compound 961]
1000 to 10000 nM	CNc1cc(C)nc(Nc2ccc(OC)c(OC[C@H](O)CNC3CCC3)c2)n1 [Compound 962]
100 to 1000 nM	CNc1cc(C)nc(Nc2cnc(OC)c(OC[C@H](O)CN3CCC3)c2)n1 [Compound 963]
1000 to 10000 nM	CNCCNCc1cc(Nc2nc(C)cc(NC)n2)ccc1OC [Compound 964]
< 100 nM	CNc1cc(C)nc(Nc2ccc(OC)c(CNCCN3CCC3)c2)n1 [Compound 965]
100 to 1000 nM	CNc1ccnc(Nc2cnc(OC)c(OC[C@@H]3CCN(C4CCC4)C3)n2)n1 [Compound 974]
